In patent US7150974B1, “Parathyroid hormone receptor binding method” (The General Hospital Corporation, priority 1991, dated 2006):

Key:
[1] = biological target: T1, human kidney PTH/PTHrP receptor (Homo sapiens, UniProt Q03431, L389Q); experiment: Radioreceptor assay, COS-7 cells transiently expressing human kidney PTH/PTHrP receptor (HKrk); assay type: binding
T1 construct: The full-length human kidney PTH/PTHrP receptor cDNA, HKrk, was constructed using the BamHI/PvuII fragment of PCR clone #2 and HK-2; expressed in transfected cells; host or cells: COS-7 cells, transient (DEAE/Dextran), pcDNAI
T1 sequence (Q03431 27-593 L389Q): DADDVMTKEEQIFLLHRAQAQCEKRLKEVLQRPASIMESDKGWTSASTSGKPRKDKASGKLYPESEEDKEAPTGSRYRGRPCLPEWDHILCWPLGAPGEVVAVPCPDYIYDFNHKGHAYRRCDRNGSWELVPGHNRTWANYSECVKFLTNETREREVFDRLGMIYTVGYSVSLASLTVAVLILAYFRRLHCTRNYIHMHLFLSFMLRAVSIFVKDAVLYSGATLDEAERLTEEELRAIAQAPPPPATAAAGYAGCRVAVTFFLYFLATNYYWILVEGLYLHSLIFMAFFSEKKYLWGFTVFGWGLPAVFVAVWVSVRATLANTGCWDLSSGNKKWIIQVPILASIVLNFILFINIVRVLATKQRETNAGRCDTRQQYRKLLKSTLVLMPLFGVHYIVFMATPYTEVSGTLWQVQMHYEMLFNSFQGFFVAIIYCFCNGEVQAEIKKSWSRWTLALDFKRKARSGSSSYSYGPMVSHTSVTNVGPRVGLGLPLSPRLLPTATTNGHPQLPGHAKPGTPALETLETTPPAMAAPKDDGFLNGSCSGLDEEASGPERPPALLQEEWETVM
Protocol: (§1) In brief, the labeled peptide was dissolved in 0.1% trifluoracetic acid (TFA), applied to a C18 Sep-pak cartridge (Waters Associates, Inc., Milford, Mass.) and eluted with a solution of 60% acetonitrile in 0.1% TFA. After lyophilization, the radioligand then was applied to C18-μBondapak column (3.9 mm×30 cm. Waters Associates) and eluted over 30 min with a linear gradient of 30-50% acetonitrile-0.1% TFA at a flow rate of 2 ml/min.
(§2) COS-7 cells were grown in 15 cm plates in DMEM, 10% heat-inactivated […], 10 mg/L gentamycin until 80-90% confluent. Twenty-four hours after transfection by the DEAE/Dextran method (Sambrook et al., supra), with 1-2 μg of plasmid DNA, the cells were trypsinized and replated in multiwell plastic dishes (16 or 35 mm diameter, Costar, Cambridge, Mass.) at a cell concentration of 5×10^4 cells/cm^2). […] After continuing culture for another 48 h, radiorecepter assays were performed. The culture medium was replaced with buffer containing 50 mM Tris-HCL (pH 7.7), 100 mM NaCl, 2 mM CaCl2, 5 mM KCL, 0.5% heat-inactivated fetal bovine serum (GIBCO), and 5% heat-inactivated horse serum (KC Biological Inc., Lenexa, Kans.) immediately before studies were initiated.
(§3) Incubations were terminated by aspirating the buffer, and repeatedly (×3) washing the culture dishes, containing the adherent cells with chilled 0.9% NaCl solution, over a 15 sec period. Cell-bound radioactivity was recovered by the sequential addition (×3) of 1 N NaOH (200 μl) to each well. After 30 min at room temperature, the NaOH was transferred to a glass tube. A second and third extraction with 1 N NaOH (200 μl) were combined with the first, and the total radioactivity was counted in a γ-spectrometer (Packard Instruments, Downers Grove, Ill.).

[2] = biological target: T1, human kidney PTH/PTHrP receptor; experiment: Intracellular free calcium, COS-7 cells expressing human receptor; assay type: cell-based
Protocol: Details of the methodology are:
Coverslips plated with COS cells were incubated in Fura-2 AM loading buffer containing, in mM: HEPES (N-[2-Hydroxyethyl]piperazine-N′-[2-ethanesulfonic acid]), 20; CaCl2, 1; KCl 5; NaCl, 145; MgSO4, 0.5; NaHCO3, 25; K2HPO4, 1.4; glucose, 10; and Fura-2 AM 91-(2-5′-carboxyoxazol-2′-yl)-6-aminobenzofuran-5oxy-(2′-amino-5′-methylphenoxy)ethane-N,N,N′,N′-tetraaecetic acid acetomethoxy ester), 0.5; at 37° C. at pH7.4, aerated with 95% air and 5% CO2 for 45 minutes. Cells loaded with Fura-2 AM were then washed with a modified Krebs-Heinseleit (KH) buffer containing, in mM: HEPES, 20; CaCl2, 1; KCl, 5; NaCl, 145; MgSO4, 0.5; Na2HPO4, 1; glucose, 5; pH7.4. To check that cleavage of the ester occurred, the excitation spectra after different times of Fura-2 AM incubation were measured.
To measure fluorescence of individual cells, the cover slips were placed in a microscope tissue chamber (Biophysica Technologies, Inc., MD). The chamber consisted of a shallow, sloped compartment made of Teflon with a silicone rubber seal. The cover slips served as the bottom of the chamber. A heater/cooler ring was encased in the silicone rubber which sealed the coverslip in place.

[3] = biological target: T2, rat bone PTH/PTHrP receptor (Rattus norvegicus, UniProt P25961, E586G); experiment: Inositol phosphate metabolism, COS cells expressing R15B; assay type: cell-based; conditions: FIG. 15
T2 construct: expressed in transfected cells; host or cells: COS / COS-7 cells, transient, plasmid R15B (pcDNA I)
T2 sequence (P25961 27-591 E586G): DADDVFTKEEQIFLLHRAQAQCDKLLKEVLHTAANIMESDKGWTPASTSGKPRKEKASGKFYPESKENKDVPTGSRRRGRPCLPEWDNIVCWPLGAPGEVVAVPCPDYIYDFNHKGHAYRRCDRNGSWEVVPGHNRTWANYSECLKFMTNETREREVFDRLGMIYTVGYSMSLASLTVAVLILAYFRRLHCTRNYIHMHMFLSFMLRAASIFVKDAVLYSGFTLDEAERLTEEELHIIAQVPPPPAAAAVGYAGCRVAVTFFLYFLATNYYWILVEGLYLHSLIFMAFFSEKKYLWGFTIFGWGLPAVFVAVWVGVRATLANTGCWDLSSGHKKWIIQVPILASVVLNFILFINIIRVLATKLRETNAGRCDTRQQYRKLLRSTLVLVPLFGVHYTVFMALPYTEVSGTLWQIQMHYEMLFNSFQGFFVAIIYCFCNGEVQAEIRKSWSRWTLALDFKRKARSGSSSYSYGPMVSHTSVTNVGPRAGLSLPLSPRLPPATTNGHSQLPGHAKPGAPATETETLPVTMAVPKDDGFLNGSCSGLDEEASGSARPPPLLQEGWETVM

[4] = biological target: T3, opossum kidney PTH/PTHrP receptor clone, OK-H (Didelphis virginiana, UniProt P25107, I132F/S86P); experiment: Radioreceptor assay, COS cells expressing OK-H; assay type: binding; conditions: FIG. 9
T3 construct: expressed in transfected cells; host or cells: COS cells, transient, plasmid OK-H (pcDNA I)
T3 sequence (P25107 other isoform, or with tags, fused parts or gaps S86P/I132F): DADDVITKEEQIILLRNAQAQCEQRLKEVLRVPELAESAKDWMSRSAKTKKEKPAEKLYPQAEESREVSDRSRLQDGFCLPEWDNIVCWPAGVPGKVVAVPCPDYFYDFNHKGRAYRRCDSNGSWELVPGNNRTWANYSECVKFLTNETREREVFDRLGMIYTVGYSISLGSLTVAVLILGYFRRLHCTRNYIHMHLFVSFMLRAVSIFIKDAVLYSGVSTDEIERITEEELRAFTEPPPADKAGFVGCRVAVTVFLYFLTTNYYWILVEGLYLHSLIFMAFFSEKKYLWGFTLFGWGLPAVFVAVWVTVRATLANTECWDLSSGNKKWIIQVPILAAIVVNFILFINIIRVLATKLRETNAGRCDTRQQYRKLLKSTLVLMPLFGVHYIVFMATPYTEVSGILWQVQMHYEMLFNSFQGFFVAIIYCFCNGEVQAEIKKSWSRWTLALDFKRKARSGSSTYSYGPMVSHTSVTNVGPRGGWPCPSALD
Protocol: as §1, §2, §3

[Nle^8,18, Tyr^34]bPTH(1-34)amide
fold higher apparent Kd, human versus rat bone PTH/PTHrP receptor ([1]; human versus rat receptor): 2 fold
specific binding of radiolabelled ligand ([1]; radiolabelled ligand ~200,000 cpm, COS-7 cells transfected with cloned human PTH/PTHrP receptor): 10.1±3.7%
increase in intracellular free calcium, PTH(1-34) compared with PTHrP(1-36) [2]: to the same extent
inositol phosphate metabolism (IP3 and IP2 accumulation) [3]: rapid increase
inhibition of 125I-PTHrP binding by competitor [4]: inhibited
